# ChEMBL document CHEMBL5346892, “Design and synthesis of benzochromene derivatives as AcrB inhibitors for the reversal of bacterial multidrug resistance” (Eur J Med Chem, 2023)
# Activity calls are given as the source filed them. The rule behind the calls is not given here. Peptide text beside a SMILES is read from it.
# What was measured:
# Escherichia coli [1] = test: Synergistic antibacterial activity against wild type Escherichia coli BW25113 assessed as levofloxacin MIC at 32 microg/ml incubated for 18 hrs by broth dilution assay; assay type: functional; settings: dose 32 µg/ml
# Escherichia coli [2] = test: Synergistic antibacterial activity against wild type Escherichia coli BW25113 assessed as erythromycin MIC at 8 microg/ml incubated for 18 hrs by broth dilution assay; assay type: functional; settings: dose 8 µg/ml
# [3] = Hemolytic activity in mouse RBC assessed as hemolysis at 4 to 256 microg/ml incubated for 1 hr by microplate reader analysis; assay type: toxicity, cell-based, Erythrocyte; settings: mouse red blood cells (erythrocytes), at 4 to 256 µg/mL, dose 4-256 µg/ml, read-out: Activity
# Escherichia coli [4] = test: Synergistic antibacterial activity against wild type Escherichia coli BW25113 assessed as levofloxacin MIC at 16 microg/ml incubated for 18 hrs by broth dilution assay; assay type: functional; settings: dose 16 µg/ml
# Escherichia coli [5] = test: Synergistic antibacterial activity against wild type Escherichia coli BW25113 assessed as erythromycin MIC at 64 microg/ml incubated for 18 hrs by broth dilution assay; assay type: functional; settings: dose 64 µg/ml
# Escherichia coli [6] = test: Synergistic antibacterial activity against wild type Escherichia coli BW25113 assessed as erythromycin MIC at 64 microg/ml incubated for 18 hrs in presence of colistin by broth dilution assay; assay type: functional; settings: dose 64 µg/ml
# Cell membrane = test: Induction of inner membrane permeabilization in Escherichia coli BW25113 assessed as increase in fluorescence intensity at 64 microg/ml incubated for 10 mins by DiOC2 dye based fluorimeter analysis; assay type: subcellular; settings: dose 64.0 µg/ml
# Escherichia coli [7] = test: Synergistic antibacterial activity against wild type Escherichia coli BW25113 assessed as levofloxacin MIC at 32 microg/ml incubated for 18 hrs in presence of colistin by broth dilution assay; assay type: functional; settings: dose 32 µg/ml
# [8] = Toxicity in Caenorhabditis elegans assessed as survival rate at 128 microg/ml measured after 72 hrs by light microscopic analysis; settings: at 128 µg/mL
# Escherichia coli [9] = test: Synergistic antibacterial activity against wild type Escherichia coli BW25113 assessed as levofloxacin MIC at 64 microg/ml incubated for 18 hrs in presence of colistin by broth dilution assay; assay type: functional; settings: dose 64 µg/ml
# Escherichia coli [10] = test: Synergistic antibacterial activity against wild type Escherichia coli BW25113 assessed as levofloxacin MIC at 128 microg/ml incubated for 18 hrs by broth dilution assay; assay type: functional; settings: dose 128 µg/ml
# Escherichia coli [11] = test: Synergistic antibacterial activity against wild type Escherichia coli BW25113 assessed as erythromycin MIC at 16 microg/ml incubated for 18 hrs by broth dilution assay; assay type: functional; settings: dose 16 µg/ml
# Escherichia coli [12] = test: Synergistic antibacterial activity against wild type Escherichia coli BW25113 assessed as erythromycin MIC at 128 microg/ml incubated for 18 hrs by broth dilution assay; assay type: functional; settings: dose 128 µg/ml
# Escherichia coli [13] = test: Synergistic antibacterial activity against wild type Escherichia coli BW25113 assessed as minocycline MIC at 64 microg/ml incubated for 18 hrs in presence of colistin by broth dilution assay; assay type: functional; settings: dose 64 µg/ml
# Escherichia coli [14] = test: Synergistic antibacterial activity against wild type Escherichia coli BW25113 assessed as minocycline MIC at 128 microg/ml incubated for 18 hrs by broth dilution assay; assay type: functional; settings: dose 128 µg/ml
# Escherichia coli [15] = test: Synergistic antibacterial activity against wild type Escherichia coli BW25113 assessed as levofloxacin MIC at 16 microg/ml incubated for 18 hrs in presence of colistin by broth dilution assay; assay type: functional; settings: dose 16 µg/ml
# Escherichia coli [16] = test: Synergistic antibacterial activity against wild type Escherichia coli BW25113 assessed as minocycline MIC at 4 microg/ml incubated for 18 hrs in presence of colistin by broth dilution assay; assay type: functional; settings: dose 4 µg/ml
# Escherichia coli [17] = test: Synergistic antibacterial activity against wild type Escherichia coli BW25113 assessed as minocycline MIC at 64 microg/ml incubated for 18 hrs by broth dilution assay; assay type: functional; settings: dose 64 µg/ml
# Escherichia coli [18] = test: Synergistic antibacterial activity against wild type Escherichia coli BW25113 assessed as levofloxacin MIC at 8 microg/ml incubated for 18 hrs by broth dilution assay; assay type: functional; settings: dose 8 µg/ml
# Escherichia coli [19] = test: Synergistic antibacterial activity against wild type Escherichia coli BW25113 assessed as erythromycin MIC at 16 microg/ml incubated for 18 hrs in presence of colistin by broth dilution assay; assay type: functional; settings: dose 16 µg/ml
# Escherichia coli [20] = test: Synergistic antibacterial activity against wild type Escherichia coli BW25113 assessed as erythromycin MIC at 32 microg/ml incubated for 18 hrs in presence of colistin by broth dilution assay; assay type: functional; settings: dose 32 µg/ml
# Escherichia coli [21] = test: Synergistic antibacterial activity against wild type Escherichia coli BW25113 assessed as erythromycin MIC at 32 microg/ml incubated for 18 hrs by broth dilution assay; assay type: functional; settings: dose 32 µg/ml
# Escherichia coli [22] = test: Synergistic antibacterial activity against wild type Escherichia coli BW25113 assessed as levofloxacin MIC at 64 microg/ml incubated for 18 hrs by broth dilution assay; assay type: functional; settings: dose 64 µg/ml
# Escherichia coli [23] = test: Synergistic antibacterial activity against wild type Escherichia coli BW25113 assessed as minocycline MIC at 16 microg/ml incubated for 18 hrs in presence of colistin by broth dilution assay; assay type: functional; settings: dose 16 µg/ml
# Escherichia coli [24] = test: Synergistic antibacterial activity against wild type Escherichia coli BW25113 assessed as erythromycin MIC at 8 microg/ml incubated for 18 hrs in presence of colistin by broth dilution assay; assay type: functional; settings: dose 8 µg/ml
# Escherichia coli [25] = test: Synergistic antibacterial activity against wild type Escherichia coli BW25113 assessed as minocycline MIC at 32 microg/ml incubated for 18 hrs by broth dilution assay; assay type: functional; settings: dose 32 µg/ml
# Escherichia coli [26] = test: Synergistic antibacterial activity against wild type Escherichia coli BW25113 assessed as levofloxacin MIC at 8 microg/ml incubated for 18 hrs in presence of colistin by broth dilution assay; assay type: functional; settings: dose 8 µg/ml
# Escherichia coli [27] = test: Synergistic antibacterial activity against wild type Escherichia coli BW25113 assessed as minocycline MIC at 8 microg/ml incubated for 18 hrs in presence of colistin by broth dilution assay; assay type: functional; settings: dose 8 µg/ml
# Escherichia coli [28] = test: Synergistic antibacterial activity against wild type Escherichia coli BW25113 assessed as fold decrease in levofloxacin MIC at 8 microg/ml incubated for 18 hrs by checkboard based microplate reader analysis; assay type: functional; settings: dose 8 µg/ml
# Escherichia coli [29] = test: Synergistic antibacterial activity against wild type Escherichia coli BW25113 assessed as minocycline MIC at 32 microg/ml incubated for 18 hrs in presence of colistin by broth dilution assay; assay type: functional; settings: dose 32 µg/ml
# [30] = target: T1, Multidrug efflux pump subunit AcrB (Escherichia coli (strain K12)) (UniProt P31224); test: Inhibition of Escherichia coli BW25113 AcrB assessed as inhibition of nile red efflux at 50 uM incubated for 15 mins
# T1 sequence (whole entry): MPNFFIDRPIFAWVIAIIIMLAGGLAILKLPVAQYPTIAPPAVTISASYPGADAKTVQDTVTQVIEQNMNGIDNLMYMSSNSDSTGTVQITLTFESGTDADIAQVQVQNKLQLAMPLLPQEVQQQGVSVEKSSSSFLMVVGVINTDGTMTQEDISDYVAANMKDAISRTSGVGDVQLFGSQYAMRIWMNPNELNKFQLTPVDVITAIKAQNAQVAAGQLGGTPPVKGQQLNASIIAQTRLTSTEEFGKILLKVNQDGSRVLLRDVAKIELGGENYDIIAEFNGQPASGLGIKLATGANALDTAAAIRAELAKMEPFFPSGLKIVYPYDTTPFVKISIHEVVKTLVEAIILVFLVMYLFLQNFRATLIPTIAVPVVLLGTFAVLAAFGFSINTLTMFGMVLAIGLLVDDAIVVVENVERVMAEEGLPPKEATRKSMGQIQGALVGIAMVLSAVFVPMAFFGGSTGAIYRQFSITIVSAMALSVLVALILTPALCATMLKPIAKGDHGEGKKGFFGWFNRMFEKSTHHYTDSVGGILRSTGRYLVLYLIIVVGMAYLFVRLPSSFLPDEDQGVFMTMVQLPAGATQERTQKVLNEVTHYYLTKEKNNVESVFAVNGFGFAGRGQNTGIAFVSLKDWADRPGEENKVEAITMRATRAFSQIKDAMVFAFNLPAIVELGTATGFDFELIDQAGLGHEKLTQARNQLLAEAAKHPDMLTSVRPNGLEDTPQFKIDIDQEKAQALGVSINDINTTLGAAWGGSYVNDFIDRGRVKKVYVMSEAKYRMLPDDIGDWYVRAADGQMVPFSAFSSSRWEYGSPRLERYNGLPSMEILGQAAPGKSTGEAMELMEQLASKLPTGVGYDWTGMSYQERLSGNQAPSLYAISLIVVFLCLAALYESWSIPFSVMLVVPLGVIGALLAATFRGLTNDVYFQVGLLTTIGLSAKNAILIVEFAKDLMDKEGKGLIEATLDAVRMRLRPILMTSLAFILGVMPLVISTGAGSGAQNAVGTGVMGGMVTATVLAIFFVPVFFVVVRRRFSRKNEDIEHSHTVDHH
# Escherichia coli [31] = test: Synergistic antibacterial activity against wild type Escherichia coli BW25113 assessed as minocycline MIC at 16 microg/ml incubated for 18 hrs by broth dilution assay; assay type: functional; settings: dose 16 µg/ml
# Escherichia coli [32] = test: Synergistic antibacterial activity against wild type Escherichia coli BW25113 assessed as minocycline MIC at 8 microg/ml incubated for 18 hrs by broth dilution assay; assay type: functional; settings: dose 8 µg/ml
# Escherichia coli [33] = test: Synergistic antibacterial activity against wild type Escherichia coli BW25113 assessed as levofloxacin MIC at 128 microg/ml incubated for 18 hrs in presence of colistin by broth dilution assay; assay type: functional; settings: dose 128 µg/ml
# Escherichia coli [34] = test: Synergistic antibacterial activity against wild type Escherichia coli BW25113 assessed as minocycline MIC at 128 microg/ml incubated for 18 hrs in presence of colistin by broth dilution assay; assay type: functional; settings: dose 128 µg/ml
# Escherichia coli [35] = test: Synergistic antibacterial activity against wild type Escherichia coli BW25113 assessed as fold decrease in erythromycin MIC at 128 microg/ml incubated for 18 hrs by checkboard based microplate reader analysis; assay type: functional; settings: dose 128 µg/ml
# Escherichia coli [36] = test: Synergistic antibacterial activity against wild type Escherichia coli BW25113 assessed as erythromycin MIC at 128 microg/ml incubated for 18 hrs in presence of colistin by broth dilution assay; assay type: functional; settings: dose 128 µg/ml
SMILES,MIC (Escherichia coli [1]) [µg/mL],MIC (Escherichia coli [2]) [µg/mL],hemolysis at 1 h [3] [%],MIC (Escherichia coli [4]) [µg/mL],MIC (Escherichia coli [5]) [µg/mL],MIC (Escherichia coli [6]) [µg/mL],Activity (Cell membrane),MIC (Escherichia coli [7]) [µg/mL],"survival at 72 h, 128 microg/ml [8] [%]",MIC (Escherichia coli [9]) [µg/mL],MIC (Escherichia coli [10]) [µg/mL],MIC (Escherichia coli [11]) [µg/mL],MIC (Escherichia coli [12]) [µg/mL],MIC (Escherichia coli [14]) [µg/mL],MIC (Escherichia coli [17]) [µg/mL],MIC (Escherichia coli [18]) [µg/mL],MIC (Escherichia coli [21]) [µg/mL],MIC (Escherichia coli [22]) [µg/mL],MIC (Escherichia coli [25]) [µg/mL],MIC (Escherichia coli [31]) [µg/mL],other results
CC1(C)CCc2c(C(=O)N3CCOCC3)cc3c(OCCCSc4ccc(N)cc4)cccc3c2O1,0.008,64,< 5,0.008,64,8,inactive,0.016,90,0.008,0.008,64,64,1,1,0.008,64,0.008,1,1,MIC (Escherichia coli [13]): 0.5 µg/mL; MIC (Escherichia coli [15]): 0.016 µg/mL; MIC (Escherichia coli [16]): 1 µg/mL; MIC (Escherichia coli [19]): 8 µg/mL; MIC (Escherichia coli [20]): 8 µg/mL; MIC (Escherichia coli [23]): 1 µg/mL; MIC (Escherichia coli [24]): 8 µg/mL; MIC (Escherichia coli [26]): 0.032 µg/mL; MIC (Escherichia coli [27]): 1 µg/mL; fold change (FC) (Escherichia coli [28]): 4; MIC (Escherichia coli [29]): 1 µg/mL; inhibition [30]: Active
N=C(N)NCCC[C@H](NC(=O)[C@@H](N)Cc1ccccc1)C(=O)Nc1ccc2ccccc2c1 [PABETAN] (HELM PEPTIDE1{F.R.[c1ccc2cc(N[*:1])ccc2c1]}$$$$V2.0),0.008,16,,0.008,4,,,,,,0.001,8,2,0.25,0.5,0.016,4,0.008,0.5,0.5,MIC (Escherichia coli [32]): 0.5 µg/mL
CC1(C)S[C@@H]2[C@H](NC(=O)[C@H](N)c3ccccc3)C(=O)N2[C@H]1C(=O)O [AMPICILLIN],,,,,,,,,99,,,,,,,,,,,,
CC1(C)CCc2c(C(=O)N3CCOCC3)cc3c(OCCOc4ccc([N+](=O)[O-])cc4)cccc3c2O1,0.032,64,< 5,0.032,32,8,inactive,0.032,90,0.032,0.032,64,16,2,2,0.032,64,0.032,2,2,MIC (Escherichia coli [32]): 2 µg/mL; MIC (Escherichia coli [13]): 0.5 µg/mL; MIC (Escherichia coli [33]): 0.032 µg/mL; MIC (Escherichia coli [15]): 0.032 µg/mL; MIC (Escherichia coli [34]): 0.5 µg/mL; fold change (FC) (Escherichia coli [35]): 4; MIC (Escherichia coli [19]): 8 µg/mL; MIC (Escherichia coli [20]): 8 µg/mL; MIC (Escherichia coli [36]): 4 µg/mL; MIC (Escherichia coli [23]): 1 µg/mL; MIC (Escherichia coli [24]): 8 µg/mL; MIC (Escherichia coli [26]): 0.032 µg/mL; MIC (Escherichia coli [27]): 1 µg/mL; MIC (Escherichia coli [29]): 1 µg/mL
